Consider 36 compounds from PubChem BioAssay AID1013 (Columbia University Molecular Screening Center, 2008).

The source made the active and inactive calls. How the calls were made is not given here.

Usually inhibition stands for the relative decrease from the control value, in per cent.

A short description of the assay: inhibitors of TNFa-induced VCAM1 expression, confirmation, imaging, TNFa stimulus, retest and dose response (AID 1013).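 On cell count: compound on cells 1 h before TNFa then 24 h more.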 To be noted: TNFa-stimulated cells, VCAM1 expression imaging; for inhibition: at 2 µM, stronger effect = higher value.

Take `Cc1ccc(-c2nc(NC(=O)c3nn(C)cc3[N+](=O)[O-])sc2C)cc1`: the inhibition is 91.2% (inactive). The compound also showed a cell count (cell count, at 10 µM, stronger effect = lower value) of 113%. Turning to `CCN(Cc1cc2cc(C)ccc2[nH]c1=O)C(=O)c1cccc(OC)c1`, the inhibition is -11.5% (inactive). The same measure, in the same setting: then `COc1ccc(-c2nc(C#N)c(NCCCN(C)C)o2)cc1OC`, with -0.1% (inactive).

With `CCn1c(SCC(=O)N2CCN(c3cccc(Cl)c3)CC2)nc2ccccc2c1=O`, the inhibition is 8.3% (inactive). Same read-out and setting: then `CC1=NNC(=O)/C1=C\c1cn(-c2ccccc2)nc1-c1ccc(Cl)cc1`, with -15.6% (inactive); and `CC1(C)OC(=O)C(=NNc2ccc(O)cc2)C(=O)O1`, with -6.2% (inactive). Take `Cc1nc(SCc2ccc(Br)cc2)[nH]c(=O)c1C`: the inhibition was 5.1% (inactive). Still for that read-out and setting: then `Cc1c(Cl)cccc1-n1ccnc1SCC(=O)O`, with -7.8% (inactive); and `Cn1c(CNc2ccccc2O)nc2ccccc21`, with 11.9% (inactive); and `CCC1=NC(c2ccccc2Cl)N(O)C1(C)C` (configuration not stated), with 5.5% (inactive). Consider `O=C1N2CCSC2=NC1(Nc1ccccn1)C(F)(F)F` (configuration not stated), for which the inhibition was 5.4% (inactive).

As for `CC(Sc1nc(N)cc(=O)[nH]1)C(=O)NC1CCCCC1` (configuration not stated), the inhibition is -7.6% (inactive). Consider `CC1CCCN(c2nc3ccsc3c(=O)s2)C1` (configuration not stated), for which the inhibition was -1.5% (inactive). Same read-out and setting: then `CSc1nc2nccc(-c3ccc(Oc4ccccc4)cc3)n2n1`, with -5.9% (inactive); and `CS(=O)(=O)N(CC(=O)NCc1ccccc1Cl)Cc1ccccc1`, with -0.5% (inactive); and `Nc1nnc(SCC(=O)NCc2ccc3c(c2)OCO3)s1`, with 0.2% (inactive). On the same count and under the same terms, then `COc1ccc(-c2cc(C(F)(F)F)nc(S(=O)(=O)CCC(=O)N3CCOCC3)n2)cc1`, with 20.8% (inactive); and `CCOc1cc(S(=O)(=O)Nc2ccccc2CC)ccc1Cl`, with -2.9% (inactive); and `COC(=O)Sc1nc(N2CCOCC2)c2c(c1C#N)CC(C)(C)OC2`, with -5.9% (inactive). As to `COc1ccc(-c2cc(=O)[nH]c(NCc3ccccc3)n2)cc1`, the inhibition was 15.6% (inactive). Still for that read-out and setting: then `OC1(c2cccc(C(F)(F)F)c2)CCN(c2ncnc3c2[nH]c2ccc(F)cc23)CC1`, with 1% (inactive). The same measure, in the same setting: then `O=C(NCc1ccco1)C1CC(=O)N(c2ccc(F)cc2)C1` (configuration not stated), with 6% (inactive); and `CCCOC(=O)C1C2C=C[C@]3(CN(CCc4ccccc4)C(=O)[C@H]13)O2` (some centres not stated), with 4.5% (inactive); and `Cc1cc(N2CCOCC2)c2c(N)c(C)cc(C)c2n1`, with -11% (inactive). The same measure, in the same setting: then `O=[N+]([O-])c1ccc(/C=N/n2c(COc3ccccc3)n[nH]c2=S)cc1`, with -9.2% (inactive); and `Cc1cccc(OCCN2CSC(=S)N(C)C2)c1`, with -5.7% (inactive); and `Cc1cc(C)n(C(=O)c2ccc(NC(=O)C3COc4ccccc4O3)cc2)n1` (configuration not stated), with 3.2% (inactive). Regarding `CN(C)c1nc(N(C)C)nc(N(C#N)CCOc2ccccc2)n1`, the inhibition was -3.1% (inactive). On to `CC(C)c1nnc(NC(=O)CCC(=O)N2CCN(C3CCCCC3)CC2)s1`, for which the inhibition was 2.9% (inactive). On the same count and under the same terms, then `O=C(O)c1cccc(S(=O)(=O)Nc2ccccc2Cl)c1`, with -5.6% (inactive); and `Cc1cc(NC(=O)NC(=O)c2cccc(OC(F)(F)C(F)F)c2)n[nH]1`, with 3.8% (inactive). Same read-out and setting: then `CCN1C(=O)CSC1=NC12CC3CC(CC(C3)C1)C2`, with -5.9% (inactive); and `O=C(N/N=C/c1ccc[nH]1)c1sc2ccccc2c1Cl`, with 13.1% (inactive). As to `CCCC(C(=O)NC1CCCC1)N(CCCN1CCOCC1)C(=O)c1snc(C(N)=O)c1N` (configuration not stated), the inhibition is 4.4% (inactive). Still for that read-out and setting: then `Cc1nc2sc(C(c3ccc(Cl)cc3)N3CC(C)OC(C)C3)c(O)n2n1` (configuration not stated), with -3% (inactive); and `C=CC(=O)Nc1ccc(Br)cc1`, with -8.4% (inactive).
